27 compounds from patent publication US10988466B2, “Heterocyclic derivatives useful as SHP2 inhibitors” (Jacobio Pharmaceuticals Co., Ltd., priority 2017, dated 2021) can be followed below.

SMILES strings stand for the structures.

The first test concerns MV-4-11. As to the kind of experiment: Cell proliferation assay (MTS/PMS). The class given is cell-based. Particulars: Homo sapiens, MV4-11; MV-4-11 cell proliferation, MTS/PMS readout at day 8, compounds added 24 hours after plating; read-out: IC50.
Regarding `Nc1nc(N2CCC3(CC2)Cc2ncccc2[C@H]3N)cnc1Sc1ccnc(Cl)c1Cl` [Example 105, (S)-1′-(6-amino-5-((2,3-dichloro-pyridin-4-yl)thio)pyrazin-2-yl)-5,7-dihydrospiro[cyclo-penta[b]pyridine-6,4′-piperidin]-5-amine], the IC50 was found to be 11 nM.

A further test addresses T1, SHP2 (Homo sapiens, UniProt Q06124).
T1 sequence (Q06124 1-593): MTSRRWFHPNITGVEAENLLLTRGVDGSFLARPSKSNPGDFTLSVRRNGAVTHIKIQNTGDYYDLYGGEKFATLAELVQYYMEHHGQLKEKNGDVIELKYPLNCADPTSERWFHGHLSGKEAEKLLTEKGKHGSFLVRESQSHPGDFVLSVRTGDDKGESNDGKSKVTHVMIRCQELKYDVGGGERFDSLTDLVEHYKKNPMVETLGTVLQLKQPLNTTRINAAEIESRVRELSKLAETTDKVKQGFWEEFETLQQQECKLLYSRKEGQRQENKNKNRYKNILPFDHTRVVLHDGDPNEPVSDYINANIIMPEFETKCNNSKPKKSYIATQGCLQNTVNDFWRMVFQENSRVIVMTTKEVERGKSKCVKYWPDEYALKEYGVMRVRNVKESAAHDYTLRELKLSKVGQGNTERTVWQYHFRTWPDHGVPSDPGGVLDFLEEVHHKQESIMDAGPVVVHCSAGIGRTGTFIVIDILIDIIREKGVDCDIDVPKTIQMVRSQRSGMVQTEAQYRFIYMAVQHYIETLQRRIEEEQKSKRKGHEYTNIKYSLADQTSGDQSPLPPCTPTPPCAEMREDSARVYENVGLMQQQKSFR
As to the kind of experiment: biochemical. Particulars: read-out: SHP2 inhibition (%)@0.1 μM.
`Nc1nc(N2CCC3(CC2)Cc2cnccc2C3N)cnc1Sc1ccnc(N)c1Cl` (stereo not drawn) [Example 127, 1′-(6-amino-5-((2-amino-3-chloropyridin-4-yl)thio)pyrazin-2-yl)-5,7-dihydrospiro [cyclopenta[c]pyridine-6,4′-piperidin]-5-amine]: the inhibition at 0.1 µM came out at 83%. Consider `Nc1cccc(Sc2ncc(N3CCC4(CC3)Cc3ncccc3[C@H]4N)nc2N)c1Cl` [Example 98, (S)-1′-(6-amino-5-((3-amino-2-chlorophenyl)thio)pyrazin-2-yl)-5,7-dihydrospiro [cyclopenta[b]pyridine-6,4′-piperidin]-5-amine], for which the inhibition at 0.1 µM is 81%. Still for that read-out and setting: the result for `Nc1nc(N2CCC3(CC2)Cc2ccc(N4CCOCC4)cc2[C@H]3N)cnc1Sc1ccnc(N)c1Cl` [Example 60, (S)-1′-(6-amino-5-((2-amino-3-chloropyridin-4-yl)thio)pyrazin-2-yl)-6-morpholino-1,3-dihydro-spiro[indene-2,4′-piperidin]-1-amine] reads 70%; that for `CP(C)(=O)c1cc2c(cc1F)CC1(CCN(c3cnc(Sc4ccnc(N)c4Cl)c(N)n3)CC1)[C@@H]2N` [Example 41, (S)-(1-amino-1′-(6-amino-((2-amino-3-chloropyridin-4-yl)thio)pyrazin-2-yl)-5-fluoro-1,3-dihydrospiro[indene-2,4′-piperidin]-6-yl) dimethylphosphine oxide], 69%. Still for that read-out and setting: with `Nc1nc(N2CCC3(CC2)Cc2cc(F)c(F)cc2[C@H]3N)cnc1Sc1ccnc(N)c1Cl` [Example 39, (S)-1′-(6-amino-5-((2-amino-3-chloropyridin-4-yl)thio)pyrazin-2-yl)-5,6-difluoro-1,3-dihydro-spiro[indene-2,4′-piperidin]-1-amine] the figure was 67%; with `Nc1nccc(Sc2cnc(N3CCC4(CC3)Cc3scnc3C4N)cn2)c1Cl` (stereo not drawn) [Example 154, 1′-(5-((2-amino-3-chloropyridin-4-yl)thio)pyrazin-2-yl)-4,6-dihydrospiro[cyclopenta[d]thiazole-5,4′-piperidin]-4-amine], 82%; with `Nc1nc(N2CCC3(CC2)Cc2ncc(Cl)cc2[C@H]3N)cnc1Sc1ccnc(N)c1Cl` [Example 73, (S)-1′-(6-amino-5-((2-amino-3-chloropyridin-4-yl)thio)pyrazin-2-yl)-3-chloro-5,7-dihydro-spiro[cyclopenta[b]pyridine-6,4′-piperidin]-5-amine], 80%.

For `COc1cc2c(cc1Cl)[C@@H](N)C1(CCN(c3cnc(Sc4ccnc(N)c4Cl)c(N)n3)CC1)C2` [Example 32, (S)-1′-(6-amino-5-((2-amino-3-chloropyridin-4-yl)thio)pyrazin-2-yl)-6-chloro-5-methoxy-1,3-dihydrospiro[indene-2,4′-piperidin]-1-amine], the inhibition at 0.1 µM amounted to 85%. Same read-out and setting: with `NC(=O)c1cc2c(cc1F)CC1(CCN(c3cnc(Sc4ccnc(N)c4Cl)c(N)n3)CC1)[C@@H]2N` [Example 43, (S)-1-amino-1′-(6-amino-5-((2-amino-3-chloropyridin-4-yl)thio)pyrazin-2-yl)-5-fluoro-1,3-dihydro-spiro[indene-2, 4′-piperidine]-6-carboxamide] the figure was 79%; with `Nc1cnccc1Sc1cnc(N2CCC3(CC2)Cc2ncccc2[C@H]3N)cn1` [Example 108, (S)-1′-(5-((3-amino-pyridin-4-yl)thio)pyrazin-2-yl)-5,7-dihydrospiro [cyclopenta[b]pyridine-6,4′-piperidin]-5-amine], 71%; with `Nc1nccc(Sc2cnc(N3CCC4(CC3)Cc3ccccc3C4N)cn2)c1Cl` (stereo not drawn) [Example 125, 1′-(5-((2-amino-3-chloropyridin-4-yl)thio)pyrazin-2-yl)-1,3-dihydrospiro [indene-2,4′-piperidin]-1-amine], 86%. On the same count and under the same terms, with `Nc1cccc(Sc2cnc(N3CCC4(CC3)Cc3ncccc3C4N)cn2)c1Cl` (stereo not drawn) [Example 128, 1′-(5-((3-amino-2-chlorophenyl)thio)pyrazin-2-yl)-5,7-dihydrospiro [cyclopenta[b]pyridine-6,4′-piperidin]-5-amine] the figure was 84%. For `CSc1ccc2c(c1)[C@@H](N)C1(CCN(c3cnc(Sc4ccnc(N)c4Cl)c(N)n3)CC1)C2` [Example 74, (S)-1′-(6-amino-5-((2-amino-3-chloropyridin-4-yl)thio)pyrazin-2-yl)-6-(methylthio)-1,3-dihydro-spiro[indene-2,4′-piperidin]-1-amine], the inhibition at 0.1 µM turned out to be 76%.

Turning to `N[C@@H]1c2ccccc2CC12CCN(c1cnc(Sc3ccnc(O)c3Cl)cn1)CC2` [Example 133, (S)-4-((5-(1-amino-1,3-dihydrospiro[indene-2,4′-piperidin]-1′-yl)pyrazin-2-yl)thio)-3-chloro pyridin-2-ol], the inhibition at 0.1 µM turned out to be 76%. On the same count and under the same terms, the result for `Nc1cccc(Sc2ncc(N3CCC4(CC3)Cc3ncccc3C4N)nc2N)c1Cl` (stereo not drawn) [Example 126, 1′-(6-amino-5-((3-amino-2-chlorophenyl)thio)pyrazin-2-yl)-5,7-dihydrospiro[cyclo-penta[b]pyridine-6,4′-piperidin]-5-amine] reads 81%. As for `Nc1nc(N2CCC3(CC2)Cc2sc(Cl)nc2C3N)cnc1Sc1ccnc(N)c1Cl` (stereo not drawn) [Example 130, 1′-(6-amino-5-((2-amino-3-chloropyridin-4-yl)thio)pyrazin-2-yl)-2-chloro-4,6-dihydro-spiro[cyclopenta [d]thiazole-5,4′-piperidin]-4-amine], the inhibition at 0.1 µM was found to be 94%.

As to `Nc1nc(N2CCC3(CC2)Cc2ccccc2[C@H]3N)cnc1Sc1ccnc(O)c1Cl` [Example 134, (S)-4-((3-amino-5-(1-amino-1,3-dihydrospiro[indene-2,4′-piperidin]-1′-yl)pyrazin-2-yl)thio)-3-chloropyridin-2-ol], the inhibition at 0.1 µM worked out at 78%. Turning to `N#Cc1ncccc1Sc1cnc(N2CCC3(CC2)Cc2ncccc2[C@H]3N)cn1` [Example 117, (S)-3-((5-(5-amino-5,7-dihydrospiro [cyclopenta[b]pyridine-6,4′-piperidin]-1′-yl)pyrazin-2-yl)thio) picolinonitrile], the inhibition at 0.1 µM was 81%.

Take `Nc1cc(Sc2ncc(N3CCC4(CC3)Cc3ncccc3[C@H]4N)nc2N)c(Cl)cn1` [Example 113, (S)-1′-(6-amino-5-((2-amino-5-chloropyridin-4-yl)thio)pyrazin-2-yl)-5,7-dihydrospiro [cyclopenta[b]pyridine-6,4′-piperidin]-5-amine]: the inhibition at 0.1 µM is 80%. As to `Nc1nc(N2CCC3(CC2)Cc2cccnc2C[C@H]3N)cnc1Sc1ccnc(N)c1Cl` [Example 9, (R)-1-(6-amino-5-((2-amino-3-chloropyridin-4-yl)thio)pyrazin-2-yl)-7,8′-dihydro-5′H-spiro [piperidine-4,6′-quinolin]-7′-amine], the inhibition at 0.1 µM worked out at 54%. On the same count and under the same terms, the result for `Nc1nc(N2CCC3(CC2)Cc2ccc(N4CCOCC4=O)cc2[C@H]3N)cnc1Sc1ccnc(N)c1Cl` [Example 62, (S)-4-(1-amino-1′-(6-amino-5-((2-amino-3-chloropyridin-4-yl)thio)pyrazin-2-yl)-1,3-dihydrospiro [indene-2,4′-piperidin]-6-yl) morpholin-3-one] reads 76%. Still for that read-out and setting: the result for `Nc1nc(N2CCC3(CC2)Cc2ncccc2[C@H]3N)cnc1Sc1c(Cl)cncc1Cl` [Example 111, (S)-1′-(6-amino-5-((3,5-dichloro-pyridin-4-yl)thio)pyrazin-2-yl)-5,7-dihydrospiro [cyclopenta[b]pyridine-6,4′-piperidin]-5-amine] reads 82%. Same read-out and setting: the result for `Nc1nc(N2CCC3(CC2)Cc2ncccc2[C@H]3N)cnc1Sc1ccnc(O)c1Cl` [Example 136, (S)-4-((3-amino-5-(5-amino-5,7-dihydrospiro[cyclopenta[b]pyridine-6,4′-piperidin]-1′-yl)pyrazin-2-yl)thio)-3-chloropyridin-2-ol] reads 83%. For `Nc1nc(N2CCC3(CC2)Cc2ccccc2C3N)cnc1Sc1ccnc(N)c1Cl` (stereo not drawn) [Example 124, 1′-(6-amino-5-((2-amino-3-chloropyridin-4-yl)thio)pyrazin-2-yl)-1,3-dihydrospiro [indene-2,4′-piperidin]-1-amine], the inhibition at 0.1 µM stood at 84%. Regarding `Nc1nc(N2CCC3(CC2)c2ncccc2C[C@H]3N)cnc1Sc1ccnc(N)c1Cl` [Example 4, (R)-1′-(6-amino-5-((2-amino-3-chloropyridin-4-yl)thio)pyrazin-2-yl)-5,6-dihydrospiro[cyclopenta[b]pyridine-7,4′-piperidin]-6-amine], the inhibition at 0.1 µM was found to be 20%. Turning to `Nc1nc(N2CCC3(CC2)Cn2ccc(=O)cc2C3N)cnc1Sc1ccnc(N)c1Cl` (stereo not drawn) [Example 140, 1-amino-1′-(6-amino-5-((2-amino-3-chloropyridin-4-yl)thio)pyrazin-2-yl)-3H-spiro[indolizine-2,4′-piperidin]-7(1H)-one], the inhibition at 0.1 µM turned out to be 14%.

What is called IC50 is the concentration at which inhibition is half-maximal. As a reminder, the inhibition is the relative decrease from the control value, in per cent.
